According to ChEMBL document CHEMBL3758082, “Design, synthesis, and biological evaluation of crenatoside analogues as novel influenza neuraminidase inhibitors” (Eur J Med Chem, 2016):

Experiments:
[1] = molecular target: Neuraminidase (Influenza A virus) (UniProt B4URF0); experiment: Inhibition of Influenza A virus neuraminidase at 1000 ug/ml
Neuraminidase = Neuraminidase (Influenza A virus, UniProt B4URF0); experiment: Inhibition of Influenza A virus neuraminidase
Chain of Neuraminidase (B4URF0 whole entry): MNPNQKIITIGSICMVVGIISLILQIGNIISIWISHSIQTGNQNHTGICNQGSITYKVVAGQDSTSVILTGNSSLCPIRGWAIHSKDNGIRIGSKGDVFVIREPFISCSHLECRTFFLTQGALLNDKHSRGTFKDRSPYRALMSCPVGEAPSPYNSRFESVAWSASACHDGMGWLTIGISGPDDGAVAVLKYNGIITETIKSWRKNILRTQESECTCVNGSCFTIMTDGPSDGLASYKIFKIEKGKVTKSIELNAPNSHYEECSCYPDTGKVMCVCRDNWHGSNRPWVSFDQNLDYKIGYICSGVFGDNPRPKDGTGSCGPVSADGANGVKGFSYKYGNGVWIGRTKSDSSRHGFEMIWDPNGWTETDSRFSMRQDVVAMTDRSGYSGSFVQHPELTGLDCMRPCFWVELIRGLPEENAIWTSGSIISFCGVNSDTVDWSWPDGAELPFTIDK

Chain of Neuraminidase (Influenza A virus) (B4URF0 as listed by the source): as the sequence (B4URF0 whole entry) above

Compound	inhibition [1] [%]	IC50 (Neuraminidase) [µM]
C[C@@H]1O[C@@H](O[C@@H]2[C@H]3O[C@@H](c4ccc(O)c(O)c4)CO[C@@H]3O[C@H](CO)[C@H]2OC(=O)/C=C/c2ccc(O)c(O)c2)[C@H](O)[C@H](O)[C@H]1O [CRENATOSIDE]	89.2	144
OC[C@H]1O[C@H]2OC[C@@H](c3ccccc3)O[C@@H]2[C@@H](O)[C@@H]1O	16.8	
CC(C)[C@@H](N)C(=O)O[C@H]1[C@H](O)[C@@H](CO)O[C@H]2OC[C@H](c3ccccc3)O[C@@H]21	16.6	
COc1cccc(/C=C/C(=O)O[C@H]2[C@H](O)[C@@H](CO)O[C@H]3OC[C@@H](c4ccccc4)O[C@@H]32)c1	95.9	67
O=C(/C=C/c1ccc(O)cc1)O[C@H]1[C@H](O)[C@@H](CO)O[C@H]2OC[C@@H](c3ccccc3)O[C@@H]21	66.7	182
C[C@@H]1O[C@@H](O[C@H]2[C@H](O)[C@@H](COC(=O)/C=C/c3ccc(O)c(O)c3)O[C@H]3OC[C@H](c4ccc(O)c(O)c4)O[C@@H]32)[C@H](O)[C@H](O)[C@H]1O [ISOCRENATOSIDE]	86.3	186
O=C(/C=C/c1ccccc1)O[C@H]1[C@H](O)[C@@H](CO)O[C@H]2OC[C@@H](c3ccccc3)O[C@@H]21	29.8	
C[C@@H]1O[C@@H](O[C@H]2[C@H](O)[C@@H](CO)O[C@H]3OC[C@@H](c4ccccc4)O[C@@H]32)[C@H](O)[C@H](O)[C@H]1O	11.7	
CSCC[C@@H](N)C(=O)O[C@H]1[C@H](O)[C@@H](CO)O[C@H]2OC[C@@H](c3ccccc3)O[C@@H]21	90.3	189
O=C(/C=C/c1ccc(O)c(O)c1)O[C@H]1[C@H](O)[C@@H](CO)O[C@H]2OC[C@@H](c3ccccc3)O[C@@H]21	97.4	62.5
CSCC[C@@H](N)C(=O)O[C@H]1[C@H](O)[C@@H](CO)O[C@H]2OC[C@H](c3ccccc3)O[C@@H]21	88.8	216
CC(C)[C@@H](N)C(=O)O[C@H]1[C@H](O)[C@@H](CO)O[C@H]2OC[C@@H](c3ccccc3)O[C@@H]21	25.3	
COc1cccc(/C=C/C(=O)O[C@H]2[C@H](O)[C@@H](CO)O[C@H]3OC[C@H](c4ccccc4)O[C@@H]32)c1	91.2	97
O=C(/C=C/c1ccc(O)cc1)O[C@H]1[C@H](O)[C@@H](CO)O[C@H]2OC[C@H](c3ccccc3)O[C@@H]21	65	229
OC[C@H]1O[C@H]2OC[C@H](c3ccccc3)O[C@@H]2[C@@H](O)[C@@H]1O	3.9	
O=C(/C=C/c1ccc(O)c(O)c1)O[C@H]1[C@H](O)[C@@H](CO)O[C@H]2OC[C@H](c3ccccc3)O[C@@H]21	94.1	67.3
O=C(/C=C/c1ccccc1)O[C@H]1[C@H](O)[C@@H](CO)O[C@H]2OC[C@H](c3ccccc3)O[C@@H]21	17.6	
C[C@@H]1O[C@@H](O[C@H]2[C@H](O)[C@@H](CO)O[C@H]3OC[C@H](c4ccccc4)O[C@@H]32)[C@H](O)[C@H](O)[C@H]1O	8.28	
